Tests used:
OX1 = target: T1, OX1 (Homo sapiens, UniProt O43613); experiment: Orexin receptor cell-based functional assay, [Ca2+]i by FLIPR, CHO-OX1 cells; conditions: CHO-OX1 cells, [Ca2+]i by FLIPR, antagonist dose-range 0.1 nM-10 μM, EC90 of OXA; read-out: OX1
T1 construct: expressed in transfected cells; host or cells: CHO (CHO-OX1, kept under selection antibiotic)
T1 sequence (O43613 1-425): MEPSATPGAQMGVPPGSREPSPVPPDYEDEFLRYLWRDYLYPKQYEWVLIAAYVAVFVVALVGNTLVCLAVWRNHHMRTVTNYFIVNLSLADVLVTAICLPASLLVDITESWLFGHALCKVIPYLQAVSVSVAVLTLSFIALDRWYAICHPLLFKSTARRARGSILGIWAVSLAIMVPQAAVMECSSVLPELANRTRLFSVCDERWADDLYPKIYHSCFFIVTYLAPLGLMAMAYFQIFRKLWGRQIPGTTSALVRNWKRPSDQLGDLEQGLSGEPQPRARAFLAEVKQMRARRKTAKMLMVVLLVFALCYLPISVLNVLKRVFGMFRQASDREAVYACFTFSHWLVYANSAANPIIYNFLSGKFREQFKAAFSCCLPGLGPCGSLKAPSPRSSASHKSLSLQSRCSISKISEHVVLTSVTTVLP
Summary of the method: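 CHO cells expressing human OX1 or OX2 loaded with calcium dye plus 2.5 mM probenecid at 37° C (calcium4, 30 min, or calcium6, 2 h), then exposed to compounds (0.1 nM-10 μM) for 30 min. Intracellular Ca2+ measured on FLIPR; antagonist format.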

CYP3A4 = target: T2, CYP3A4 (Homo sapiens, UniProt P08684); experiment: Cytochrome P450 inhibition assay (midazolam hydroxylation); assay type: in vitro ADME; conditions: human, human liver microsomes, probe midazolam (hydroxylation to 1′-hydroxymidazolam), 10 μM test compound, midazolam at approximately its Km
T2 construct: pre-incubated with human liver microsomes and NADPH; from tissue; host or cells: human liver microsomes
Summary of the method: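 Human liver microsomes; CYP3A4 activity as midazolam 1′-hydroxylation with substrate near Km, with or without 10 μM test compound, read as percent inhibition. For time-dependent inhibition, parallel samples were preincubated 30 min with NADPH before substrate, and percent inhibition compared with non-preincubated samples.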

T2 sequence (P08684 whole entry): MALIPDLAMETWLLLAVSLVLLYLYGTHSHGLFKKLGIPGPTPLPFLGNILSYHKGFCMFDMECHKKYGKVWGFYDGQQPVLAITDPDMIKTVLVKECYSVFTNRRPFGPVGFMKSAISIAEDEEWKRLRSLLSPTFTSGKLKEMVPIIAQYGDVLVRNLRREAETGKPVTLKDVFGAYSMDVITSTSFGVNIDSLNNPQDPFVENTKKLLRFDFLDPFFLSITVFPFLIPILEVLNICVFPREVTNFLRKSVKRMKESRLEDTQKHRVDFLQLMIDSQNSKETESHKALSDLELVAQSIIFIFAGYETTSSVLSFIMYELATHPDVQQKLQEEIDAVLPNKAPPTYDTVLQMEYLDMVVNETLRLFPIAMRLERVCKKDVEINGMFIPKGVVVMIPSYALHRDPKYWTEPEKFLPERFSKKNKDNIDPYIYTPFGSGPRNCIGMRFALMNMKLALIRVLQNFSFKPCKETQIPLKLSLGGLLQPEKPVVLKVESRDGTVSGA

Row | SMILES | IC50 (OX1) | inhibition at 10 µM (CYP3A4)
1 | C[C@@H]1CCCN(C(=O)c2ccccc2-n2nccn2)[C@@H]1CNc1nc2cc(Cl)ccc2o1 [Example A219, (2-(2H-1,2,3-Triazol-2-yl)phenyl)((2S,3R)-2-(((5-chlorobenzo[d]oxazol-2-yl)amino)methyl)-3-methylpiperidin-1-yl)methanone] | 2600 nM | 84%
2 | C[C@@H]1CCCN(C(=O)c2cc(Cl)ccc2-n2nccn2)[C@@H]1CNc1ccc(C(F)(F)F)nn1 [Example A162, (5-Chloro-2-(2H-1,2,3-triazol-2-yl)phenyl)((2S,3R)-3-methyl-2-(((6-(trifluoromethyl)pyridazin-3-yl)amino)methyl)piperidin-1-yl)methanone] | 15 nM | 76%
3 | C[C@@H]1CCCN(C(=O)c2cc(Cl)ccc2-c2ncccn2)[C@@H]1CNc1ccc(Cl)cn1 [Example A203, (5-Chloro-2-(pyrimidin-2-yl)phenyl)((2S,3R)-2-(((5-chloropyridin-2-yl)amino)methyl)-3-methylpiperidin-1-yl)methanone] | 21 nM | 70%
4 | Cc1ccc(-c2cccnc2)c(C(=O)N2CCC[C@@H](C)[C@H]2CNc2ncc(C(F)(F)F)cn2)n1 [Example A223, ((2S,3R)-3-Methyl-2-(((5-(trifluoromethyl)pyrimidin-2-yl)amino)methyl)piperidin-1-yl)(6-methyl-[3,3′-bipyridin]-2-yl)methanone] | 37 nM | 93%
5 | Cc1ccc(-c2nccs2)c(C(=O)N2CCC[C@@H](C)[C@H]2CNc2ccc(C(F)(F)F)cn2)c1 [Example A24, ((2S,3R)-3-Methyl-2-(((5-(trifluoromethyl)pyridin-2-yl)amino)methyl)piperidin-1-yl)(5-methyl-2-(thiazol-2-yl)phenyl)methanone] | 11 nM | 97%
6 | Cc1ccc(-n2nccn2)c(C(=O)N2CCC[C@@H](C)[C@H]2CNc2ccc(C(F)(F)F)nn2)c1 [Example A119, ((2S,3R)-3-Methyl-2-(((6-(trifluoromethyl)pyridazin-3-yl)amino)methyl)piperidin-1-yl)(5-methyl-2-(2H-1,2,3-triazol-2-yl)phenyl)methanone] | 19 nM | 59%
7 | Cc1ccc(-c2ncccn2)c(C(=O)N2CCC[C@@H](C)[C@H]2CNc2ccc(Cl)cn2)n1 [Example A186, ((2S,3R)-2-(((5-chloropyridin-2-yl)amino)methyl)-3-methylpiperidin-1-yl)(6-methyl-3-(pyrimidin-2-yl)pyridin-2-yl)methanone] | 5 nM | 53%
8 | C[C@@H]1CCCN(C(=O)c2ccccc2-n2nccn2)[C@@H]1CNc1ccc(C(F)(F)F)cn1 [Example A314, (2-(2H-1,2,3-Triazol-2-yl)phenyl)((2S,3R)-3-methyl-2-(((5-(trifluoromethyl)pyridin-2-yl)amino)methyl)piperidin-1-yl)methanone] | 2 nM | 76%
9 | Cc1ccc(-c2cccnn2)c(C(=O)N2CCC[C@@H](C)[C@H]2CNc2ccc(C(F)(F)F)cn2)c1 [Example A197, ((2S,3R)-3-methyl-2-(((5-(trifluoromethyl)pyridin-2-yl)amino)methyl)piperidin-1-yl)(5-methyl-2-(pyridazin-3-yl)phenyl)methanone] | 7 nM | 83%
10 | Cc1ccc(-n2ncc(C)n2)c(C(=O)N2CCC[C@@H](C)[C@H]2CNc2ccc(F)cn2)c1 [Example A142, ((2S,3R)-2-(((5-Fluoropyridin-2-yl)amino)methyl)-3-methylpiperidin-1-yl)(5-methyl-2-(4-methyl-2H-1,2,3-triazol-2-yl)phenyl)methanone] | 51 nM | 74%
11 | Cc1ccc(-n2nccn2)c(C(=O)N2CCC[C@@H](C)[C@H]2CNc2ccc(C#N)cn2)c1 [Example A127, 6-((((2S,3R)-3-Methyl-1-(5-methyl-2-(2H-1,2,3-triazol-2-yl)benzoyl)piperidin-2-yl)methyl)amino)nicotinonitrile] | 5 nM | 57%

Reference: patent US9440982B2 (Eolas Therapeutics, Inc., priority 2012, dated 2016)
